Measured values published in patent US10364245B2 (CHIESI FARMACEUTICI S.p.A., priority 2017, dated 2019).

How the values were obtained:
[1] = target: T1, p38 alpha (Homo sapiens, UniProt Q16539); test: P38 alpha enzyme inhibition assay (Alphascreen kinase activity assay); format: biochemical; settings: 100 pM p38 alpha, 2 hours preincubation at 25° C., 250 μM ATP, ATF-2 fusion protein; read-out: p38α inhibition
T1 construct: purchased Invitrogen PV3304
Procedure, shortened: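 Phosphorylation of ATF-2 fusion protein (0.3 μg/ml) read by AlphaScreen with anti-phospho-ATF2 antibody after 1 h kinase reaction at 25 °C, initiated by 250 μM ATP. Compounds first incubated 2 h at 25 °C with 100 pM p38 alpha in pH 7.5 HEPES buffer, 1% DMSO. IC50 derived from concentration-response data.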

[2] = system: Peripheral Blood Mononuclear Cells (PBMCs), TNFα release; test: LPS-stimulated PBMC TNFα release assay; format: cell-based; settings: human PBMC, LPS (10 ng/ml), 18 h, compound 1 h before LPS; read-out: LPS-stimulated PBMC TNFα release inhibition
Procedure, shortened: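 TNFα in cell-free supernatant, read on MSD plates, gave % inhibition curves and IC50 (≥3 separate experiments). Healthy-donor PBMCs had 1 h compound exposure at 37 °C in 1% FBS medium, then 18 h stimulation with 10 ng/ml LPS, after a 3 h serum-free rest.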

T1 sequence (Q16539 whole entry, the tested form may be a part): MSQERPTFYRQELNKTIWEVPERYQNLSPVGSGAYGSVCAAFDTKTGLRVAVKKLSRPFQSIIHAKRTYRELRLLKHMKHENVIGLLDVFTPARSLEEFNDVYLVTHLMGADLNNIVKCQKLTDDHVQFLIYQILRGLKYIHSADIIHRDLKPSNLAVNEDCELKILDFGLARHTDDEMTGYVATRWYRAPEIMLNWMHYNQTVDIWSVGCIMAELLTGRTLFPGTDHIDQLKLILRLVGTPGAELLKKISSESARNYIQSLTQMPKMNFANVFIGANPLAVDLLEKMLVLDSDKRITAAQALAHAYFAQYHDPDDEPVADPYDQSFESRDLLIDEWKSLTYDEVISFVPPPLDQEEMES

IC50 [1] | Compound | IC50 [2]
< 1 nM | CCC(CC)c1nnc2ccc(O[C@@H]3CC[C@H](NC(=O)Nc4cc(C(C)(C)C)nc(C(=O)NCCN5CCOCC5)n4)c4ccccc43)cn12 [Example 69, 4-(tert-butyl)-N-(2-morpholinoethyl)-6-(3-((1S,4R)-4-((3-(pentan-3-yl)-[1,2,4]triazolo[4,3-a]pyridin-6-yl)oxy)-1,2,3,4-tetrahydronaphthalen-1-yl)ureido)pyrimidine-2-carboxamide] | 1 to 5 nM
1 to 10 nM | COCCN(C)CCNC(=O)c1nc(NC(=O)N[C@H]2CC[C@@H](Oc3ccc4nnc(C(C)C)n4c3)c3ccccc32)cc(C(C)(C)C)n1 [Example 70, 4-(tert-butyl)-6-(3-((1S,4R)-4-((3-isopropyl-[1,2,4]triazolo[4,3-a]pyridin-6-yl)oxy)-1,2,3,4-tetrahydronaphthalen-1-yl)ureido)-N-(2-((2-methoxyethyl)(methyl)amino)ethyl)pyrimidine-2-carboxamide] | > 5 nM
< 1 nM | CCC(CC)c1nnc2ccc(O[C@@H]3CC[C@H](NC(=O)Nc4cc(C(C)(C)C)nc(C(=O)NCCO)n4)c4ccccc43)cn12 [Example 72, 4-(tert-butyl)-N-(2-hydroxyethyl)-6-(3-((1S,4R)-4-((3-(pentan-3-yl)-[1,2,4]triazolo[4,3-a]pyridin-6-yl)oxy)-1,2,3,4-tetrahydronaphthalen-1-yl)ureido)pyrimidine-2-carboxamide] | 1 to 5 nM
< 1 nM | CCC(CC)c1nnc2ccc(O[C@@H]3CC[C@H](NC(=O)Nc4cc(C(C)(C)C)nc(C(=O)NCCN(C)CCOC)n4)c4ccccc43)cn12 [Example 73, 4-(tert-butyl)-N-(2-((2-methoxyethyl)(methyl)amino)ethyl)-6-(3-((1S,4R)-4-((3-(pentan-3-yl)-[1,2,4]triazolo[4,3-a]pyridin-6-yl)oxy)-1,2,3,4-tetrahydronaphthalen-1-yl)ureido)pyrimidine-2-carboxamide] | 1 to 5 nM
1 to 10 nM | CN(C)CCNC(=O)c1nc(NC(=O)N[C@H]2CC[C@@H](Oc3ccc4nnc(C5CCCC5)n4c3)c3ccccc32)cc(C(C)(C)C)n1 [Example 74, 4-(tert-butyl)-6-(3-((1S,4R)-4-((3-cyclopentyl-[1,2,4]triazolo[4,3-a]pyridin-6-yl)oxy)-1,2,3,4-tetrahydronaphthalen-1-yl)ureido)-N-(2-(dimethylamino)ethyl)-pyrimidine-2-carboxamide] | > 5 nM
1 to 10 nM | CC(C)(C)c1cc(NC(=O)N[C@H]2CC[C@@H](Oc3ccc4nnc(C5CCCC5)n4c3)c3ccccc32)nc(C(=O)NCCN2CCOCC2)n1 [Example 75, 4-(tert-butyl)-6-(3-((1S,4R)-4-((3-cyclopentyl-[1,2,4]triazolo[4,3-a]pyridin-6-yl)oxy)-1,2,3,4-tetrahydronaphthalen-1-yl)ureido)-N-(2-morpholinoethyl)-pyrimidine-2-carboxamide] | > 5 nM
1 to 10 nM | COCCN(C)CCNC(=O)c1nc(NC(=O)N[C@H]2CC[C@@H](Oc3ccc4nnc(C5CCCC5)n4c3)c3ccccc32)cc(C(C)(C)C)n1 [Example 76, 4-(tert-butyl)-6-(3-((1S,4R)-4-((3-cyclopentyl-[1,2,4]triazolo[4,3-a]pyridin-6-yl)oxy)-1,2,3,4-tetrahydronaphthalen-1-yl)ureido)-N-(2-((2-methoxyethyl)(methyl)-amino)ethyl)pyrimidine-2-carboxamide] | > 5 nM
< 1 nM | CN(CCO)CCNC(=O)c1nc(NC(=O)N[C@H]2CC[C@@H](Oc3ccc4nnc(C(C)(C)C)n4c3)c3ccccc32)cc(C(C)(C)C)n1 [Example 77, 4-(tert-butyl)-6-(3-((1S,4R)-4-((3-(tert-butyl)-[1,2,4]triazolo[4,3-a]pyridin-6-yl)oxy)-1,2,3,4-tetrahydronaphthalen-1-yl)ureido)-N-(2-((2-hydroxyethyl)(methyl)-amino)ethyl)pyrimidine-2-carboxamide] | 1 to 5 nM
< 1 nM | CC(C)(C)c1cc(NC(=O)N[C@H]2CC[C@@H](Oc3ccc4nnc(C(C)(C)C)n4c3)c3ccccc32)nc(C(=O)NCCN2CC(O)C2)n1 [Example 78, 4-(tert-butyl)-6-(3-((1S,4R)-4-((3-(tert-butyl)-[1,2,4]triazolo[4,3-a]pyridin-6-yl)oxy)-1,2,3,4-tetrahydronaphthalen-1-yl)ureido)-N-(2-(3-hydroxyazetidin-1-yl)ethyl)pyrimidine-2-carboxamide] | > 5 nM
1 to 10 nM | CC(C)(C)c1cc(NC(=O)N[C@H]2CC[C@@H](Oc3ccc4nnc(C(C)(C)C)n4c3)c3ccccc32)nc(C(=O)NCCCN2CCOCC2)n1 [Example 80, 4-(tert-butyl)-6-(3-((1S,4R)-4-((3-(tert-butyl)-[1,2,4]triazolo[4,3-a]pyridin-6-yl)oxy)-1,2,3,4-tetrahydronaphthalen-1-yl)ureido)-N-(3-morpholinopropyl)-pyrimidine-2-carboxamide] | 1 to 5 nM
< 1 nM | CN1CC(NC(=O)c2nc(NC(=O)N[C@H]3CC[C@@H](Oc4ccc5nnc(C(C)(C)C)n5c4)c4ccccc43)cc(C(C)(C)C)n2)C1 [Example 81, 4-(tert-butyl)-6-(3-((1S,4R)-4-((3-(tert-butyl)-[1,2,4]triazolo[4,3-a]pyridin-6-yl)oxy)-1,2,3,4-tetrahydronaphthalen-1-yl)ureido)-N-(1-methylazetidin-3-yl)pyrimidine-2-carboxamide] | > 5 nM
1 to 10 nM | CN(CCO)C(=O)c1nc(NC(=O)N[C@H]2CC[C@@H](Oc3ccc4nnc(C(C)(C)C)n4c3)c3ccccc32)cc(C(C)(C)C)n1 [Example 82, 4-(tert-butyl)-6-(3-((1S,4R)-4-((3-(tert-butyl)-[1,2,4]triazolo[4,3-a]pyridin-6-yl)oxy)-1,2,3,4-tetrahydronaphthalen-1-yl)ureido)-N-(2-hydroxyethyl)-N-methylpyrimidine-2-carboxamide] | > 5 nM
< 1 nM | CC(C)(C)c1cc(NC(=O)N[C@H]2CC[C@@H](Oc3ccc4nnc(C(C)(C)C)n4c3)c3ccccc32)nc(C(=O)N[C@H]2C[C@H](CO)C2)n1 [Example 83, 4-(tert-butyl)-6-(3-((1S,4R)-4-((3-(tert-butyl)-[1,2,4]triazolo[4,3-a]pyridin-6-yl)oxy)-1,2,3,4-tetrahydronaphthalen-1-yl)ureido)-N-((1s,3R)-3-(hydroxymethyl)-cyclobutyl)pyrimidine-2-carboxamide] | 1 to 5 nM
< 1 nM | CCC(CC)c1nnc2ccc(O[C@@H]3CC[C@H](NC(=O)Nc4cc(C(C)(C)C)nc(C(=O)NC5CN(C)C5)n4)c4ccccc43)cn12 [Example 84, 4-(tert-butyl)-N-(1-methylazetidin-3-yl)-6-(3-((1S,4R)-4-((3-(pentan-3-yl)-[1,2,4]triazolo[4,3-a]pyridin-6-yl)oxy)-1,2,3,4-tetrahydronaphthalen-1-yl)ureido)pyrimidine-2-carboxamide] | > 5 nM
< 1 nM | CCC(CC)c1nnc2ccc(O[C@@H]3CC[C@H](NC(=O)Nc4cc(C(C)(C)C)nc(C(=O)NCCN(CCOC)CCOC)n4)c4ccccc43)cn12 [Example 85, N-(2-(bis(2-methoxyethyl)amino)ethyl)-4-(tert-butyl)-6-(3-((1S,4R)-4-((3-(pentan-3-yl)-[1,2,4]triazolo[4,3-a]pyridin-6-yl)oxy)-1,2,3,4-tetrahydronaphthalen-1-yl)ureido)pyrimidine-2-carboxamide] | > 5 nM
1 to 10 nM | COCCN(CCOC)Cc1nc(NC(=O)N[C@H]2CC[C@@H](Oc3ccc4nnc(C(C)(C)C)n4c3)c3ccccc32)cc(C(C)(C)C)n1 [Example 86, 1-(2-((bis(2-methoxyethyl)amino)methyl)-6-(tert-butyl)pyrimidin-4-yl)-3-((1S,4R)-4-((3-(tert-butyl)-[1,2,4]triazolo[4,3-a]pyridin-6-yl)oxy)-1,2,3,4-tetrahydronaphthalen-1-yl)urea] | > 5 nM
< 1 nM | CC(C)(C)c1cc(NC(=O)N[C@H]2CC[C@@H](Oc3ccc4nnc(C(C)(C)C)n4c3)c3ccccc32)nc(CN(CCO)CCO)n1 [Example 87, 1-(2-((bis(2-hydroxyethyl)amino)methyl)-6-(tert-butyl)pyrimidin-4-yl)-3-((1S,4R)-4-((3-(tert-butyl)-[1,2,4]triazolo[4,3-a]pyridin-6-yl)oxy)-1,2,3,4-tetrahydronaphthalen-1-yl)urea] | > 5 nM
1 to 10 nM | CN(CCO)Cc1nc(NC(=O)N[C@H]2CC[C@@H](Oc3ccc4nnc(C(C)(C)C)n4c3)c3ccccc32)cc(C(C)(C)C)n1 [Example 88, 1-(6-(tert-butyl)-2-(((2-hydroxyethyl)(methyl)amino)methyl)pyrimidin-4-yl)-3-((1S,4R)-4-((3-(tert-butyl)-[1,2,4]triazolo[4,3-a]pyridin-6-yl)oxy)-1,2,3,4-tetrahydronaphthalen-1-yl)urea] | > 5 nM
1 to 10 nM | CC(C)(C)c1cc(NC(=O)N[C@H]2CC[C@@H](Oc3ccc4nnc(C(C)(C)C)n4c3)c3ccccc32)nc(C(=O)NCCN2CCCOCC2)n1 [Example 89, N-(2-(1,4-oxazepan-4-yl)ethyl)-4-(tert-butyl)-6-(3-((1S,4R)-4-((3-(tert-butyl)-[1,2,4]triazolo[4,3-a]pyridin-6-yl)oxy)-1,2,3,4-tetrahydronaphthalen-1-yl)ureido)pyrimidine-2-carboxamide] | 1 to 5 nM
